Target: T1, renin (human plasma) (Homo sapiens, UniProt P00797)
T1 construct: from tissue; host or cells: human plasma
T1 sequence (P00797 67-406): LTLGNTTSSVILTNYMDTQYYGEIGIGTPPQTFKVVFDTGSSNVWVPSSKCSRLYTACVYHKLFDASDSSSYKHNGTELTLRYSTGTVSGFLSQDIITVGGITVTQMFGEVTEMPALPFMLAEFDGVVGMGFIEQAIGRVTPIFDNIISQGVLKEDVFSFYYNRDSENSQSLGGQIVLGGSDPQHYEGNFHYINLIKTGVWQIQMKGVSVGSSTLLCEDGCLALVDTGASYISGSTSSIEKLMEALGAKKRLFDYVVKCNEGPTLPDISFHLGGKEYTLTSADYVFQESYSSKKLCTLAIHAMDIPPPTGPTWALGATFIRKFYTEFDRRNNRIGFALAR
Assay: Test example for renin inhibiting activities: angiotensin I formation in human plasma, measured by radio immunoassay
Format: biochemical
Conditions: 0.2M sodium phosphate buffer pH7.4, 37° C. for one hour, read-out: IC50 (mol), 50% inhibition concentration of renin inhibiting activity
Protocol: To 156 μl of a 0.2M sodium phosphate buffer solution (pH7.4), 40 μl of a solution mixture of 34 mM 8-hydroxyquinoline and 100 mM disodium ethylenediaminetetraacetate, 4 μl of dimethyl sulfoxide or a dimethyl sulfoxide solution of an inhibitor and 200 μl of human plasma were added and reacted at 37° C. for one hour. Then, pepstatin was added thereto to terminate the reaction, and the amount of the resulting angiotension I was measured by radio immunoassay whereby the inhibiting activity was determined.

Row | IC50 [nM] | Compound
1 | 5 | CCCCC(NC(=O)C(Cc1cccc2ccccc12)NC(=O)OCc1ccccc1)C(=O)N[C@@H](CC(C)C)[C@@H](O)CC(CCCO)C(=O)NCC(C)C (mixture of isomers) [Example 14(8), (2RS,4S,5S)-5-(L-N-benzyloxycarbonylnaphthylalanyl-L-norleucyl)amino-4-hydroxy-2-(3-hydroxypropyl)-7-methyl-octanoic acid isobutylamide]
2 | 40 | CCCCC(NC(=O)C(Cc1cccc2ccccc12)NC(=O)OCc1ccccc1)C(=O)N[C@@H](CC(C)C)[C@@H](O)CC(C(=O)NCC(C)C)C(C)C (mixture of isomers) [comparative compound, (2RS,4S,5S)-5-(L-N-benzyloxycarbonyl-naphthylalanyl-L-norleucyl)amino-4-hydroxy-2-isopropyl-7-methyl-octanoic acid isobutylamide, reference compound]
3 | 7 | (2RS,4S,5S)-5-(L-N-benzyloxycarbonylnaphthylalanyl-L-norleucyl)amino-4-hydroxy-2-(2-hydroxyethyl)-7-methyloctanoic acid isobutylamide [Example 15(3)]

Reference: US4851387A, “5-substituted amino-4-hydroxy-pentanoic acid derivatives and their use” (Banyu Pharmaceutical Co., Ltd., priority 1986, dated 1989)
